Assay results published in US5679828A (priority 1995, dated 1997).
pEC50: −log10 of the molar value.

What was measured:
[1] = tested on: HIV-induced membrane fusion; assay: Inhibition of HIV-induced membrane fusion / syncytia formation reported in the literature; type: cell-based; conditions: versus compounds 2-5 or 8-10; CEM4 here, H9 in the literature
HIV-1 = conditions: Table 1 footnote h: data from reference 8; cited from earlier work
HIV-1 RT = conditions: Table 1 footnote h: data from reference 8; cited from earlier work
[2] = tested on: HIV-induced membrane fusion; conditions: cited from earlier work

Compound: C=C(C)[C@@H]1CC[C@]2(C(=O)NCCCCCCCC(=O)N[C@@H](CC(C)C)[C@@H](O)CC(=O)O)CC[C@]3(C)[C@H](CC[C@@H]4[C@@]5(C)CC[C@H](O)C(C)(C)[C@@H]5CC[C@]43C)[C@@H]12 [Compound 12]
- potency in inhibiting syncytia formation relative to compounds 2-5 or 8-10 [1]: approximately ten
- pEC50 (HIV-1): 7.52
- T.I. (HIV-1): > 90
- HIV-RT Assay IC50 (HIV-1 RT): No Inhibition
- Fusion Assay IC100 ([2]; Table 1 footnote h: data from reference 8): 3 µg/mL
- inhibit syncytia formation ([2]; reported in the literature, H9 cell line): 3 µg/mL
